From PMC4412288, “Crystal Structures of the Carboxyl cGMP Binding Domain of the Plasmodium falciparum cGMP-dependent Protein Kinase Reveal a Novel Capping Triad Crucial for Merozoite Egress” (PLoS Pathogens, 2015)

Target: T1, PfCNB-C (residues 275–428) (Plasmodium falciparum, UniProt Q8I719)
T1 construct: 275–428 for CNB-C; His-tag (pQTEV, TEV site) (N, cleaved yes); made in house; host or cells: E. coli TP2000 (delta-cya)
Assay: FP binding measurements, isolated PfCNB-C domain
Description: A manually designed construct consisting of PfPKG amino acids 1–853 with codons optimized for expression in E.coli was synthesized at Life Technologies. All PfPKG constructs were ligated into the His-tagged bacterial expression vector, pQTEV [28]. In designing the expression constructs of each CNB, we used the sequence of the cGMP selective CNB-B that we recently reported. The domain boundaries for the individual constructs are: residues 1–173 for CNB-A, 158–294 for CNB-B, 275–428 for CNB-C and 401–542 for CNB-D. All PfPKG proteins were expressed in TP2000 E. coli. The cells were grown at 37 °C to an OD600nm of 0.6, then induced with 0.5 mM IPTG, and grown for an additional 10 hours at 25 °C. Cells were harvested by centrifugation, then resuspended in 50 mM potassium phosphate (pH 7.5), 500 mM NaCl and 1 mM β-mercaptoethanol, and lysed using a cell disruptor (Constant Systems).
The direct fluorescence polarization (FP) assay was performed following the procedure from Moll et al. Measurements were performed in 150 mM NaCl, 20 mM MOPS plus 0.005% (w/v) CHAPS pH 7.0 using the Fusion a-FP microtiter plate reader at room temperature in a 384 well microtiterplate (Perkin Elmer, Optiplate, black). The protein concentration was varied while the concentration of 8-Fluo-cAMP/8-Fluo-cGMP (Biolog Life Science Institute (Bremen, Germany)) was fixed at 1–5 nM. […] The KD values were calculated from sigmoidal dose-response curves.
For competition FP experiments, the protein concentration and the concentration of 8-Fluo-cGMP were fixed to give a polarization signal that was 50% of the maximum value obtained from direct FP measurements. […] FP signals were detected as indicated above. Data were analyzed with GraphPad Prism 5.03 by plotting the polarization signal in mPol against the logarithm of the cyclic nucleotide concentration. The EC50 values were calculated from sigmoidal dose-response curves.

T1 sequence (Q8I719 275-428): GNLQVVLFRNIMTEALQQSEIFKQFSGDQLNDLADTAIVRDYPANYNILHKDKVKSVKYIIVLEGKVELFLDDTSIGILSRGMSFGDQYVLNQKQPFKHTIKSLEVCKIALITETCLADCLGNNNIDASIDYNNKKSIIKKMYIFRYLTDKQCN

Row | Structure (SMILES) | affinity of PfCNB-C for the fluorescent nucleotide
1 | Nc1ncnc2c1nc(SCCNC(=S)Nc1ccc(-c3c4ccc(=O)cc-4oc4cc(O)ccc34)c(C(=O)O)c1)n2C1OC2COP(=O)(O)OC2C1O (centres unmarked) [8-Fluo-cAMP] | very weak affinity
2 | Nc1nc2c(nc(SCCNC(=S)Nc3ccc4c(c3)C(=O)OC43c4ccc(O)cc4Oc4cc(O)ccc43)n2[C@@H]2O[C@@H]3COP(=O)(O)O[C@H]3[C@H]2O)c(=O)[nH]1 [8-Fluo-cGMP] | very weak affinity
